The source of these data is US12247011B2, “Selective inhibitors of NLRP3 inflammasome” (NodThera Limited, priority 2017, dated 2025).

This assay concerns IL-1β release upon NLRP3 activation in peripheral blood mononuclear cells (PBMC). Kind of assay: PBMC IC50 Determination Assay. The assay is classed as cell-based. As to conditions: Homo sapiens; LPS-primed PBMC, 30 min compound, stimulated with ATP (5 mM) or nigericin (10 μM) for 1 h; IL-1β ELISA; read-out: PBMC IC50. The procedure:
PBMC IC50 Determination Assay
The compounds of the present disclosure were tested for their inhibitory activity against IL-1β release upon NLRP3 activation in peripheral blood mononuclear cells (PBMC).
Isolated cells were seeded into the wells of a 96-well plate and incubated for 3 h with lipopolysaccharide (LPS). Following medium exchange, the compounds of the present disclosure were added (a single compound per well) and the cells were incubated for 30 min. Next, the cells were stimulated either with ATP (5 mM) or nigericin (10 μM) for 1 h and the cell culture media from the wells were collected for further analysis.
The release of IL-1β into the media was determined by a quantitative detection of IL-1β in the media using an IL-1β enzyme-linked immunosorbent assay (ELISA) Ready-SET-Go!, eBioscience cat. […] Subsequently, plates were blocked with blocking buffer for 1 h at room temperature (rt) and after washing with a buffer (PBS with 0.05% Tween-20) incubated with protein standard and culture media. […] Plates were washed and incubated with HRP-streptavidin for 30 min at rt and washed again. The signal was developed after addition of 3,3,5,5-tetramethylbenzidine-peroxidase (TMB) until colour appeared and the reaction was stopped by 2 M H2SO4. A microplate spectrophotometer (BioTek) was used to detect signals with 450 nm. The detection range of IL-1β ELISA was 2-150 ng/ml.
For `CCOC(=O)COC(=O)Nc1c(Cl)cccc1Cl` [Compound 3, Ethyl 2-{[(2,6-dichlorophenyl)carbamoyl]oxy}acetate], the IC50 was in the range of 100 to 1000 nM.

For `CCOC(=O)COC(=O)Nc1c(C)cccc1Cl` [Compound 10], the IC50 lay within 1000 to 10000 nM.

Consider `CCOC(=O)C(Cn1cccn1)OC(=O)Nc1c(F)cccc1Cl` (stereo not shown) [Compound 50, Ethyl 2-{[(2-chloro-6-fluorophenyl)carbamoyl]oxy}-3-(1H-pyrazol-1-yl)propanoate], for which the IC50 was 100 to 1000 nM.

For the compound `CCOC(=O)C(Cc1ccccc1)OC(=O)Nc1c2c(cc3c1CCC3)CCC2` (stereo not shown) [Compound 17, Ethyl 2-(((1,2,3,5,6,7-hexahydro-s-indacen-4-yl)carbamoyl)oxy)-3-phenylpropanoate], the half-inhibitory concentration (IC50) was in the range of 100 to 1000 nM.

Take `O=C(O)COC(=O)Nc1c2c(cc3c1CCC3)CCC2` [Compound 27, 2-{[(1,2,3,5,6,7-Hexahydro-s-indacen-4-yl)carbamoyl]oxy}acetic acid]: the IC50 fell in the range of 1000 to 10000 nM.

With `CCOC(=O)COC(=O)Nc1ccccc1C(C)(C)C` [Compound 13, Ethyl 2-{[(2-tert-butylphenyl)carbamoyl]oxy}acetate], the half-inhibitory concentration (IC50) lay within 1000 to 10000 nM.

As to `CCOC(=O)C(Cn1cccn1)OC(=O)Nc1c(C)cccc1CC` (stereo not shown) [Compound 46, Ethyl 2-{[(2-ethyl-6-methylphenyl)carbamoyl]oxy}-3-(1H-pyrazol-1-yl)propanoate], the IC50 is 100 to 1000 nM.

For the compound `O=C(COC(=O)Nc1c2c(cc3c1CCC3)CCC2)OC1CCC1` [Compound 23, Cyclobutyl 2-{[(1,2,3,5,6,7-hexahydro-s-indacen-4-yl)carbamoyl]oxy}acetate], the IC50 was 100 to 1000 nM.

`CCOC(=O)COC(=O)Nc1c(CC)cc(C)cc1CC` [Compound 28, Ethyl 2-{[(2,6-diethyl-4-methylphenyl)carbamoyl]oxy}acetate]: the IC50 fell in the range of 1000 to 10000 nM.

On to `N#Cc1cnn(C[C@@H](OC(=O)Nc2c3c(cc4c2CCC4)CCC3)C(=O)OCc2ccccc2)c1` [Compound 77, Benzyl (2R)-3-(4-cyano-1H-pyrazol-1-yl)-2-{[(1,2,3,5,6,7-hexahydro-s-indacen-4-yl)carbamoyl]oxy}propanoate], for which the IC50 lay in the range of 10 to 100 nM.

Turning to `CCOC(=O)COC(=O)Nc1c(CC)cccc1CC` [Compound 9, Ethyl 2-{[(2,6-diethylphenyl)carbamoyl]oxy}acetate], the IC50 fell in the range of 100 to 1000 nM.

Turning to `CCOC(=O)COC(=O)Nc1ccccc1C(C)C` [Compound 15, Ethyl 2-(((2-isopropylphenyl)carbamoyl)oxy)acetate], the IC50 lay in the range of 1000 to 10000 nM.

Regarding `CCOC[C@@H](OC(=O)Nc1c2c(cc3c1CCC3)CCC2)C(=O)OCC` [Compound 95, Ethyl (2R)-3-ethoxy-2-{[(1,2,3,5,6,7-hexahydro-s-indacen-4-yl)carbamoyl]oxy}propanoate], the IC50 fell in the range of 100 to 1000 nM.

Take `CCOC(=O)[C@@H](Cc1cccc(-n2cccn2)c1)OC(=O)Nc1c2c(cc3c1CCC3)CCC2` [Compound 43, Ethyl (2R)-2-{[(1,2,3,5,6,7-hexahydro-s-indacen-4-yl)carbamoyl]oxy}-3-[3-(1H-pyrazol-1-yl)phenyl]propanoate]: the IC50 was in the range of 100 to 1000 nM.

Regarding `O=C(Nc1c2c(cc3c1CCC3)CCC2)O[C@H](Cc1ncccn1)C(=O)O` [Compound 106, (2R)-2-{[(1,2,3,5,6,7-hexahydro-s-indacen-4-yl)carbamoyl]oxy}-3-(pyrimidin-2-yl)propanoic acid], the IC50 is 100 to 1000 nM.

Take `O=C(Nc1c2c(cc3c1CCC3)CCC2)OC(Cn1cccn1)C(=O)O` (stereo not shown) [Compound 40, 2-{[(1,2,3,5,6,7-hexahydro-s-indacen-4-yl)carbamoyl]oxy}-3-(1H-pyrazol-1-yl)propanoic acid]: the IC50 is 100 to 1000 nM.

With `CCOC(=O)C(Cn1ccc(C)n1)OC(=O)Nc1c2c(cc3c1CCC3)CCC2` (stereo not shown) [Compound 72, Ethyl 2-{[(1,2,3,5,6,7-hexahydro-s-indacen-4-yl)carbamoyl]oxy}-3-(3-methyl-1H-pyrazol-1-yl)propanoate], the IC50 lay in the range of 10 to 100 nM.

As for `CC1CCCC(NC(=O)OC(Cc2ncccn2)C(=O)OC(C)C)C1` (stereo not shown) [Compound 118, Propan-2-yl 2-{[(3-methylcyclohexyl)carbamoyl]oxy}-3-(pyrimidin-2-yl)propanoate], the IC50 lay in the range of 1000 to 10000 nM.

Turning to `CCOC(=O)C(Cn1cccn1)OC(=O)Nc1c2c(cc3c1OCC3)OCC2` (stereo not shown) [Compound 100, Ethyl 2-[({4,10-dioxatricyclo[7.3.0.0^3,7]dodeca-1,3(7),8-trien-2-yl}carbamoyl)oxy]-3-(1H-pyrazol-1-yl)propanoate], the IC50 lay in the range of 1000 to 10000 nM.

Regarding `CCOC(=O)C(Cn1cc(F)cn1)OC(=O)Nc1c2c(cc3c1CCC3)CCC2` (stereo not shown) [Compound 80, Ethyl 3-(4-fluoro-1H-pyrazol-1-yl)-2-{[(1,2,3,5,6,7-hexahydro-s-indacen-4-yl)carbamoyl]oxy}propanoate], the IC50 was 10 to 100 nM.

As to `CCOC(=O)COC(=O)Nc1c(C(C)C)cccc1C(C)C` [Compound 34, Ethyl 2-({[2,6-bis(propan-2-yl)phenyl]carbamoyl}oxy)acetate], the IC50 is 1000 to 10000 nM.

Consider `CCOC(=O)C(Cn1ccnc1)OC(=O)Nc1c2c(cc3c1CCC3)CCC2` (stereo not shown) [Compound 33, Ethyl 2-{[(1,2,3,5,6,7-hexahydro-s-indacen-4-yl)carbamoyl]oxy}-3-(1H-imidazol-1-yl)propanoate], for which the IC50 lay within 100 to 1000 nM.

As for `CC(C)OC(=O)C(Cc1ccnnc1)OC(=O)Nc1c2c(cc3c1CCC3)CCC2` (stereo not shown) [Compound 128, Propan-2-yl 2-{[(1,2,3,5,6,7-hexahydro-s-indacen-4-yl)carbamoyl]oxy}-3-(pyridazin-4-yl)propanoate], the IC50 was 100 to 1000 nM.

Take `CCOC(=O)COC(=O)Nc1cc(C(F)(F)F)ccc1Cl` [Compound 35, Ethyl 2-({[2-chloro-5-(trifluoromethyl)phenyl]carbamoyl}oxy)acetate]: the IC50 is more than 10000 nM.

In the case of `CCOC(=O)[C@@H](Cc1ccc(C#N)cc1)OC(=O)Nc1c2c(cc3c1CCC3)CCC2` [Compound 25, Ethyl 3-(4-cyanophenyl)-2-{[(1,2,3,5,6,7-hexahydro-s-indacen-4-yl)carbamoyl]oxy}propanoate], the IC50 is 100 to 1000 nM.

In the case of `CCOC(=O)[C@@H](COC(C)C)OC(=O)Nc1c2c(cc3c1CCC3)CCC2` [Compound 104, Ethyl (2R)-2-{[(1,2,3,5,6,7-hexahydro-s-indacen-4-yl)carbamoyl]oxy}-3-(propan-2-yloxy)propanoate], the IC50 was 1000 to 10000 nM.

For the compound `CCOC(=O)C(Cn1cccn1)OC(=O)Nc1c(C)ccc2ccccc12` (stereo not shown) [Compound 86, Ethyl 2-{[(2-methylnaphthalen-1-yl)carbamoyl]oxy}-3-(1H-pyrazol-1-yl)propanoate], the IC50 lay within 10 to 100 nM.

On to `Cc1cnc(CC(OC(=O)Nc2c3c(cc4c2CCC4)CCC3)C(=O)OC(C)C)cn1` (stereo not shown) [Compound 121, Propan-2-yl 2-{[(1,2,3,5,6,7-hexahydro-s-indacen-4-yl)carbamoyl]oxy}-3-(5-methylpyrazin-2-yl)propanoate], for which the IC50 is 10 to 100 nM.

For the compound `O=C(COC(=O)Nc1c2c(cc3c1CCC3)CCC2)OC1CC1` [Compound 39, cyclopropyl 2-{[(1,2,3,5,6,7-hexahydro-s-indacen-4-yl)carbamoyl]oxy}acetate], the IC50 lay in the range of 1000 to 10000 nM.

In the case of `CCOC(=O)[C@@H](Cn1cnc(C)n1)OC(=O)Nc1c2c(cc3c1CCC3)CCC2` [Compound 105, Ethyl (2R)-2-{[(1,2,3,5,6,7-hexahydro-s-indacen-4-yl)carbamoyl]oxy}-3-(3-methyl-1H-1,2,4-triazol-1-yl)propanoate], the IC50 lay within 10 to 100 nM.

`CCOC(=O)C(Cn1cc(OC)cn1)OC(=O)Nc1c2c(cc3c1CCC3)CCC2` (stereo not shown) [Compound 92, Ethyl 2-{[(1,2,3,5,6,7-hexahydro-s-indacen-4-yl)carbamoyl]oxy}-3-(4-methoxy-1H-pyrazol-1-yl)propanoate]: the IC50 was 100 to 1000 nM.

Consider `CCOC(=O)C(Cn1cccn1)OC(=O)Nc1c(C)cc(C(F)(F)F)cc1C` (stereo not shown) [Compound 91, Ethyl 2-({[2,6-dimethyl-4-(trifluoromethyl)phenyl]carbamoyl}oxy)-3-(1H-pyrazol-1-yl)propanoate], for which the 50% inhibitory concentration (IC50) lay within 1000 to 10000 nM.

Turning to `COC(=O)COC(=O)Nc1c2c(cc3c1CCC3)CCC2` [Compound 29, Methyl 2-{[(1,2,3,5,6,7-hexahydro-s-indacen-4-yl)carbamoyl]oxy}acetate], the IC50 was 1000 to 10000 nM.

In the case of `CCOC(=O)[C@@H](C)OC(=O)Nc1c2c(cc3c1CCC3)CCC2` [Compound 19, Ethyl (2R)-2-{[(1,2,3,5,6,7-hexahydro-s-indacen-4-yl)carbamoyl]oxy}propanoate], the IC50 fell in the range of 1000 to 10000 nM.

Take `O=C(COC(=O)Nc1c2c(cc3c1CCC3)CCC2)OCC1CC1` [Compound 22, Cyclopropylmethyl 2-{[(1,2,3,5,6,7-hexahydro-s-indacen-4-yl)carbamoyl]oxy}acetate]: the IC50 fell in the range of 100 to 1000 nM.

`CCOC(=O)C(Cc1ccccn1)OC(=O)Nc1c2c(cc3c1CCC3)CCC2` (stereo not shown) [Compound 18, Ethyl 2-(((1,2,3,5,6,7-hexahydro-s-indacen-4-yl)carbamoyl)oxy)-3-(pyridin-2-yl)propanoate]: the IC50 lay in the range of 100 to 1000 nM.

`CCOC(=O)C(Cn1cccn1)OC(=O)Nc1c(C)cccc1Cl` (stereo not shown) [Compound 51, Ethyl 2-{[(2-chloro-6-methylphenyl)carbamoyl]oxy}-3-(1H-pyrazol-1-yl)propanoate]: the IC50 was 1000 to 10000 nM.
